Measured values: US12138256B2, “Treatment of cardiopulmonary disorders” (Bayer Aktiengesellschaft, priority 2021, dated 2024)

Test system: sGC (cGMP)
Test: Phase I, healthy male subjects, 7 days once daily inhalation: cGMP in blood samples (C-4.1)
Assay type: in vivo, human
Details: for time of cGMP peak after administration: first inhalation; for mean peak cGMP: after repeated dosing for 7 days; for peak mean±SD cGMP: first profile day
Method: Healthy White male subjects, aged 18 to 45 years and with a body mass index (BMI) above/equal 18.5 and below/equal 29.9 kg/m2 were treated in a clinical pharmacological phase I study on seven days with inhaled once daily doses of 480 μg or 1000 μg or 2000 μg (2 capsules of 1000 μg) (nominal dose) of dry powder formulations of example 2 or Placebo. The subjects inhaled the drug powder from capsules (see under D-1, e.g. tables 22 and 23) inserted into a handheld inhalation device by one deep inhalative breath. The dry powder formulation of the drug is dispersed into the airstream and fine particles are transported into the deep parts of the lung where it is intended to cause a vasodilation of the blood vessels in PH patients for a substantial reduction of increased blood pressure in the central pulmonary blood vessels in PAH patients or other subtypes of PH. This effect cannot be shown in subjects with healthy lungs. In addition inhaled drug causes a dilation of the bronchial airways and thus also improves disease states of lung diseases in PH patients with pathological bronchoconstriction. This effect was measured via bodyplethysmography as reduction of Specific Airway Resistance in healthy subjects. After the deep inhalative breath the subjects hold breath for 2 seconds, so that the dry powder drug condenses from the airstream onto the surface of the deeper lung areas where it is deposited close to its site of intended pharmacological action. The drug dissolutes over the day and equilibrates the lung via lining fluid.
Drug activity in healthy men was controlled in the healthy subjects by analysing blood samples for cGMP, the immediate product of sGC pharmacological activation prior after the first and after the last drug inhalation of the 7 days treatment in comparison to measurements on the pretreatment day for all doses.
This prolonged activity in comparison to systemic drug concentration is caused by the mode of administration as inhaled dry powder, that deposits drug in the deeper part of the lung leading to an active drug concentration over 24 h after a once daily inhalation.
At 10 days after the first treatment, mean cGMP concentrations had returned close to the concentration observed at the pre-dosing day.

## O=C(O)c1ccc(CCN(CCc2ccccc2OCc2ccc(-c3ccc(C(F)(F)F)cc3)cc2Cl)[C@H]2CCCc3nc(C(=O)O)ccc32)cc1 [example 2, (5S)-{[2-(4-Carboxyphenyl)ethyl][2-(2-{[3-chloro-4′-(trifluoromethyl)biphenyl-4-yl]methoxy}phenyl)-ethyl]amino}-5,6,7,8-tetrahydroquinoline-2-carboxylic acid]
1000 μg, 5 D 00 H 00 M (trough)
  cGMP, mean ± SD: 8.50 ± 2.13 nmol/L
1000 μg, 6 D 00 H 00 M (trough)
  cGMP, mean ± SD: 9.23 ± 2.12 nmol/L
1000 μg, 7 D 00 H 00 M (trough)
  cGMP, mean ± SD: 9.66 ± 2.30 nmol/L
1000 μg, 7 D 02 H 00 M
  cGMP, mean ± SD: 11.84 ± 2.18 nmol/L
1000 μg, 7 D 04 H 00 M
  cGMP, mean ± SD: 15.76 ± 2.29 nmol/L
1000 μg, 7 D 06 H 00 M
  cGMP, mean ± SD: 16.70 ± 2.96 nmol/L
1000 μg, 7 D 08 H 00 M
  cGMP, mean ± SD: 15.91 ± 3.86 nmol/L
1000 μg, 7 D 12 H 00 M
  cGMP, mean ± SD: 14.10 ± 4.55 nmol/L
1000 μg, 7 D 15 H 00 M
  cGMP, mean ± SD: 12.91 ± 3.72 nmol/L
1000 μg, 8 D 00 H 00 M
  cGMP, mean ± SD: 9.38 ± 3.11 nmol/L
1000 μg, 8 D 12 H 00 M
  cGMP, mean ± SD: 7.21 ± 2.24 nmol/L
1000 μg, 9 D 00 H 00 M
  cGMP, mean ± SD: 6.29 ± 1.86 nmol/L
1000 μg, 9 D 12 H 00 M
  cGMP, mean ± SD: 5.93 ± 1.39 nmol/L
1000 μg, 10 D 00 H 00 M
  cGMP, mean ± SD: 6.33 ± 2.30 nmol/L
1000 μg, −0 D 09 H 00 M (baseline)
  cGMP, mean ± SD: 4.18 ± 0.82 nmol/L
1000 μg, −0 D 09 H 00 M (pretreatment day)
  cyclic guanosine monophosphate changes from baseline: -0.84 ± 2.04 nmol/L
1000 μg, −0 D 12 H 00 M (baseline)
  cGMP, mean ± SD: 4.26 ± 0.99 nmol/L
1000 μg, −0 D 12 H 00 M (pretreatment day)
  cyclic guanosine monophosphate changes from baseline: -0.77 ± 1.72 nmol/L
1000 μg, −0 D 16 H 00 M (baseline)
  cGMP, mean ± SD: 4.59 ± 1.06 nmol/L
1000 μg, −0 D 16 H 00 M (pretreatment day)
  cyclic guanosine monophosphate changes from baseline: -0.43 ± 1.49 nmol/L
1000 μg, −0 D 18 H 00 M (baseline)
  cGMP, mean ± SD: 4.16 ± 0.92 nmol/L
1000 μg, −0 D 18 H 00 M (pretreatment day)
  cyclic guanosine monophosphate changes from baseline: -0.87 ± 1.44 nmol/L
1000 μg, −0 D 20 H 00 M (baseline)
  cGMP, mean ± SD: 4.78 ± 1.37 nmol/L
1000 μg, −0 D 20 H 00 M (pretreatment day)
  cyclic guanosine monophosphate changes from baseline: -0.24 ± 1.75 nmol/L
1000 μg, −0 D 22 H 00 M (baseline)
  cGMP, mean ± SD: 5.10 ± 1.46 nmol/L
1000 μg, −0 D 22 H 00 M (pretreatment day)
  cyclic guanosine monophosphate changes from baseline: 0.08 ± 1.41 nmol/L
1000 μg, −1 D 02 H 00 M (baseline)
  cGMP, mean ± SD: 5.02 ± 1.59 nmol/L
2000 μg dose
  time of cGMP peak after administration: 8 h
2000 μg once daily inhaled, 0 D 02 H 00 M
  cyclic guanosine monophosphate changes from baseline: 4.78 ± 1.35 nmol/L
2000 μg once daily inhaled, 0 D 04 H 00 M
  cyclic guanosine monophosphate changes from baseline: 9.18 ± 2.50 nmol/L
2000 μg once daily inhaled, 0 D 06 H 00 M
  cyclic guanosine monophosphate changes from baseline: 11.04 ± 3.21 nmol/L
2000 μg once daily inhaled, 0 D 08 H 00 M
  cyclic guanosine monophosphate changes from baseline: 11.69 ± 2.78 nmol/L
2000 μg once daily inhaled, 0 D 12 H 00 M
  cyclic guanosine monophosphate changes from baseline: 8.56 ± 2.19 nmol/L
2000 μg once daily inhaled, 0 D 15 H 00 M
  cyclic guanosine monophosphate changes from baseline: 7.54 ± 2.32 nmol/L
2000 μg once daily inhaled, 1 D 00 H 00 M
  cyclic guanosine monophosphate changes from baseline: 3.48 ± 0.90 nmol/L
2000 μg once daily inhaled, 2 D 00 H 00 M
  cyclic guanosine monophosphate changes from baseline: 1.57 ± 0.86 nmol/L
2000 μg once daily inhaled, 3 D 00 H 00 M
  cyclic guanosine monophosphate changes from baseline: 5.17 ± 1.51 nmol/L
2000 μg once daily inhaled, 4 D 00 H 00 M
  cyclic guanosine monophosphate changes from baseline: 9.33 ± 2.55 nmol/L
2000 μg once daily inhaled, 5 D 00 H 00 M
  cyclic guanosine monophosphate changes from baseline: 11.10 ± 3.49 nmol/L
2000 μg once daily inhaled, 6 D 00 H 00 M
  cyclic guanosine monophosphate changes from baseline: 11.71 ± 2.66 nmol/L
2000 μg once daily inhaled, 7 D 00 H 00 M
  cyclic guanosine monophosphate changes from baseline: 11.36 ± 3.37 nmol/L
2000 μg once daily inhaled, 7 D 02 H 00 M
  cyclic guanosine monophosphate changes from baseline: 17.33 ± 4.18 nmol/L
2000 μg once daily inhaled, 7 D 04 H 00 M
  cyclic guanosine monophosphate changes from baseline: 22.23 ± 4.75 nmol/L
2000 μg once daily inhaled, 7 D 06 H 00 M
  cyclic guanosine monophosphate changes from baseline: 27.39 ± 6.93 nmol/L
2000 μg once daily inhaled, 7 D 08 H 00 M
  cyclic guanosine monophosphate changes from baseline: 27.83 ± 7.77 nmol/L
2000 μg once daily inhaled, 7 D 12 H 00 M
  cyclic guanosine monophosphate changes from baseline: 23.33 ± 5.53 nmol/L
2000 μg once daily inhaled, 7 D 15 H 00 M
  cyclic guanosine monophosphate changes from baseline: 19.08 ± 4.95 nmol/L
2000 μg once daily inhaled, 8 D 00 H 00 M
  cyclic guanosine monophosphate changes from baseline: 11.17 ± 3.69 nmol/L
2000 μg once daily inhaled, 8 D 12 H 00 M
  cyclic guanosine monophosphate changes from baseline: 8.02 ± 2.45 nmol/L
2000 μg once daily inhaled, 9 D 00 H 00 M
  cyclic guanosine monophosphate changes from baseline: 5.64 ± 1.36 nmol/L
2000 μg once daily inhaled, 9 D 12 H 00 M
  cyclic guanosine monophosphate changes from baseline: 4.57 ± 2.15 nmol/L
2000 μg once daily inhaled, 10 D 00 H 00 M
  cyclic guanosine monophosphate changes from baseline: 3.26 ± 1.07 nmol/L
2000 μg, 0 D 00 H 00 M
  cyclic guanosine monophosphate changes from baseline: 0.68 ± 1.14 nmol/L
2000 μg, 0 D 00 H 00 M (baseline)
  cGMP, mean ± SD: 4.83 ± 2.52 nmol/L
2000 μg, 0 D 02 H 00 M
  cGMP, mean ± SD: 9.61 ± 3.65 nmol/L
2000 μg, 0 D 04 H 00 M
  cGMP, mean ± SD: 14.01 ± 4.51 nmol/L
2000 μg, 0 D 06 H 00 M
  cGMP, mean ± SD: 15.88 ± 5.09 nmol/L
2000 μg, 0 D 08 H 00 M
  cGMP, mean ± SD: 16.52 ± 4.24 nmol/L
2000 μg, 0 D 12 H 00 M
  cGMP, mean ± SD: 13.39 ± 4.01 nmol/L
2000 μg, 0 D 15 H 00 M
  cGMP, mean ± SD: 12.38 ± 4.17 nmol/L
2000 μg, 1 D 00 H 00 M
  cGMP, mean ± SD: 8.31 ± 2.88 nmol/L
2000 μg, 2 D 00 H 00 M
  cGMP, mean ± SD: 6.40 ± 2.09 nmol/L
2000 μg, 3 D 00 H 00 M (trough)
  cGMP, mean ± SD: 10.00 ± 3.51 nmol/L
2000 μg, 4 D 00 H 00 M (trough)
  cGMP, mean ± SD: 14.17 ± 4.36 nmol/L
2000 μg, 5 D 00 H 00 M (trough)
  cGMP, mean ± SD: 15.93 ± 5.52 nmol/L
2000 μg, 6 D 00 H 00 M (trough)
  cGMP, mean ± SD: 16.54 ± 4.60 nmol/L
2000 μg, 7 D 00 H 00 M (trough)
  cGMP, mean ± SD: 16.19 ± 5.02 nmol/L
2000 μg, 7 D 02 H 00 M
  cGMP, mean ± SD: 22.17 ± 6.07 nmol/L
2000 μg, 7 D 04 H 00 M
  cGMP, mean ± SD: 27.07 ± 7.01 nmol/L
2000 μg, 7 D 06 H 00 M
  cGMP, mean ± SD: 32.22 ± 8.83 nmol/L
2000 μg, 7 D 08 H 00 M
  cGMP, mean ± SD: 32.67 ± 9.48 nmol/L
2000 μg, 7 D 12 H 00 M
  cGMP, mean ± SD: 28.17 ± 7.50 nmol/L
2000 μg, 7 D 15 H 00 M
  cGMP, mean ± SD: 23.91 ± 6.59 nmol/L
2000 μg, 8 D 00 H 00 M
  cGMP, mean ± SD: 16.00 ± 5.77 nmol/L
2000 μg, 8 D 12 H 00 M
  cGMP, mean ± SD: 12.86 ± 3.96 nmol/L
2000 μg, 9 D 00 H 00 M
  cGMP, mean ± SD: 10.48 ± 3.49 nmol/L
2000 μg, 9 D 12 H 00 M
  cGMP, mean ± SD: 9.40 ± 3.10 nmol/L
2000 μg, 10 D 00 H 00 M
  cGMP, mean ± SD: 8.09 ± 2.81 nmol/L
2000 μg, −0 D 09 H 00 M (baseline)
  cGMP, mean ± SD: 3.98 ± 1.91 nmol/L
2000 μg, −0 D 09 H 00 M (pretreatment day)
  cyclic guanosine monophosphate changes from baseline: -0.18 ± 0.90 nmol/L
2000 μg, −0 D 12 H 00 M (baseline)
  cGMP, mean ± SD: 4.43 ± 2.24 nmol/L
2000 μg, −0 D 12 H 00 M (pretreatment day)
  cyclic guanosine monophosphate changes from baseline: 0.28 ± 0.97 nmol/L
2000 μg, −0 D 16 H 00 M (baseline)
  cGMP, mean ± SD: 4.44 ± 2.15 nmol/L
2000 μg, −0 D 16 H 00 M (pretreatment day)
  cyclic guanosine monophosphate changes from baseline: 0.29 ± 1.17 nmol/L
2000 μg, −0 D 18 H 00 M (baseline)
  cGMP, mean ± SD: 4.32 ± 1.33 nmol/L
2000 μg, −0 D 18 H 00 M (pretreatment day)
  cyclic guanosine monophosphate changes from baseline: 0.17 ± 0.78 nmol/L
2000 μg, −0 D 20 H 00 M (baseline)
  cGMP, mean ± SD: 4.63 ± 1.86 nmol/L
2000 μg, −0 D 20 H 00 M (pretreatment day)
  cyclic guanosine monophosphate changes from baseline: 0.48 ± 0.71 nmol/L
2000 μg, −0 D 22 H 00 M (baseline)
  cGMP, mean ± SD: 4.81 ± 2.22 nmol/L
2000 μg, −0 D 22 H 00 M (pretreatment day)
  cyclic guanosine monophosphate changes from baseline: 0.66 ± 0.79 nmol/L
2000 μg, −1 D 02 H 00 M (baseline)
  cGMP, mean ± SD: 4.16 ± 1.70 nmol/L
480, 1000, 2000 μg
  start of cGMP increase after first inhalation: approximately 2 h
480 and 1000 μg dose
  time of cGMP peak after administration: 6 h
480 μg
  mean peak cGMP: 11.96 ± 2.80 nmol/L
  peak mean±SD cGMP: 8.84 ± 1.35 nmol/L
1000 μg
  mean peak cGMP: 16.70 ± 2.96 nmol/L
  peak mean±SD cGMP: 11.69 ± 1.86 nmol/L
2000 μg
  mean peak cGMP: 32.67 ± 9.48 nmol/L
  peak mean±SD cGMP: 16.52 ± 4.24 nmol/L
